Measurements published in PubChem BioAssay (NCI).
“And” between values parts separate entries of the source, which are not always exact repeats. Identical values can stand only once.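 96-well plates; 48 h exposure; 5 concentrations. Endpoints by linear interpolation between flanking doses. Not reached: highest tested concentration assigned. GI50 marks 50% less growth. TGI: total growth inhibition.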

Legend:
Experiment in all cases: NCI anticancer screen, dose series, 48 h
NCI/ADR-RES ovarian = test system: NCI/ADR-RES ovarian
OVCAR-3 ovarian = test system: OVCAR-3 ovarian
HS 578T breast = test system: HS 578T breast
SR leukemia = test system: SR leukemia
MDA-MB-435 = test system: MDA-MB-435
KM12 colon = test system: KM12 colon
K-562 leukemia = test system: K-562 leukemia
RPMI-8226 leukemia = test system: RPMI-8226 leukemia
SK-OV-3 ovarian = test system: SK-OV-3 ovarian
UACC-257 melanoma = test system: UACC-257 melanoma

Structure (SMILES)	GI50 (NCI/ADR-RES ovarian)	TGI (NCI/ADR-RES ovarian)	GI50 (OVCAR-3 ovarian)	TGI (OVCAR-3 ovarian)	GI50 (HS 578T breast)	TGI (HS 578T breast)	GI50 (SR leukemia)	TGI (SR leukemia)	GI50 (MDA-MB-435)	TGI (MDA-MB-435)	GI50 (KM12 colon)	TGI (KM12 colon)	GI50 (K-562 leukemia)	TGI (K-562 leukemia)	GI50 (RPMI-8226 leukemia)	TGI (RPMI-8226 leukemia)	GI50 (SK-OV-3 ovarian)	TGI (SK-OV-3 ovarian)	GI50 (UACC-257 melanoma)	TGI (UACC-257 melanoma)
O=C(c1ccncc1)N1CCN(C2=NS(=O)(=O)c3ccccc3N2c2ccccc2)CC1	> 100 µM	> 100 µM	32100 nM	> 100 µM	29.3 µM	81 µM	177 nM	2.42 µM	18.9 µM	40 µM	29.2 µM	> 100 µM	7.79 µM	> 100 µM	35.5 µM	96.2 µM	13.4 µM	> 100 µM	21.7 µM	63.8 µM
O=C1c2ccccc2CCC1(Br)Br	3.4 µM	17.3 µM	1750 nM	3.17 µM	4.08 µM	> 26.9 µM	670 nM	3.9 µM	2.34 µM	6.53 µM	4.34 µM	15 µM	0.357 µM	2.02 µM	1.99 µM	4.9 µM	6.12 µM	18.2 µM	1.88 µM	4.98 µM
COc1ccc(CCN2COc3ccc4ccc(=O)oc4c3C2)cc1OC		> 100 µM		> 100 µM		> 100 µM		50.5 µM		> 100 µM		> 100 µM		> 100 µM		52.8 µM		> 100 µM		> 100 µM
CS(=O)(=O)N(CC(=O)O)Cc1ccccc1		> 100 µM		> 100 µM		> 100 µM		> 100 µM		> 100 µM		> 100 µM		> 100 µM		> 100 µM		> 100 µM		> 100 µM
COc1cccc2cc(-c3nc(C4CCC(C(=O)O)CC4)n4ncnc(N)c34)[nH]c12 (stereo not given)	0.406 µM and 0.804 µM	10.3 µM and > 10 µM	253 nM and 394 nM	4.27 µM and > 7.87 µM	0.135 µM and 0.11 µM	0.627 µM and 0.979 µM	295 nM and 310 nM	> 36.3 µM	0.288 µM and 0.531 µM	3.08 µM and 6.84 µM	0.33 µM and 0.59 µM	> 100 µM	0.499 µM and 2.63 µM	> 100 µM	0.185 µM and 0.303 µM	3.02 µM and > 5.2 µM	0.223 µM and 0.278 µM	1.75 µM and 2.21 µM	0.198 µM and 0.378 µM	2.1 µM and 4.19 µM
O=C(NCc1cccs1)OC1CC2CCC1C2 (stereo not given)		> 100 µM		> 100 µM		> 100 µM		> 100 µM		> 100 µM		> 100 µM		> 100 µM		> 100 µM		> 100 µM		> 100 µM
Cc1ccc2nc(CC(=O)c3ccc4ccccc4c3)c(=O)[nH]c2c1		> 100 µM		> 100 µM		> 100 µM		> 100 µM		> 100 µM		> 100 µM		> 100 µM		> 100 µM		> 100 µM		> 100 µM
Cc1cccc2c1ccc1c3occ(C)c3c(=O)oc21	> 100 µM	> 100 µM	> 100000 nM	> 100 µM	> 100 µM	> 100 µM	> 100000 nM	> 100 µM	> 100 µM	> 100 µM	> 100 µM	> 100 µM	> 100 µM	> 100 µM	> 100 µM	> 100 µM	> 100 µM	> 100 µM	> 100 µM	> 100 µM
CC#CC(=O)N[C@H]1CCCN(c2c(F)cc(C(N)=O)c3[nH]c(C)c(C)c23)C1	19.9 µM	49.6 µM	21900 nM	63.7 µM	16.4 µM	83.3 µM	17600 nM	> 100 µM	16.6 µM	34 µM	14.3 µM	46.4 µM	26.8 µM	> 100 µM	16.5 µM	44.8 µM	14.4 µM	59.6 µM	14.5 µM	34.9 µM
CC(=O)Nc1ccc(S(=O)(=O)c2ccc(NC(C)=O)cc2)cc1	> 100 µM	> 100 µM	61800 nM	> 100 µM	> 100 µM	> 100 µM	> 100000 nM	> 100 µM	> 100 µM	> 100 µM	> 100 µM	> 100 µM	> 100 µM	> 100 µM	> 100 µM	> 100 µM	> 100 µM	> 100 µM	> 100 µM	> 100 µM
O=C1CCCC(=O)C1C(=O)c1ccc(C(F)(F)F)cc1[N+](=O)[O-]	> 100 µM	> 100 µM	> 100000 nM	> 100 µM	> 100 µM	> 100 µM	> 100000 nM	> 100 µM	> 100 µM	> 100 µM	> 100 µM	> 100 µM	> 100 µM	> 100 µM	> 100 µM	> 100 µM	> 100 µM	> 100 µM	> 100 µM	> 100 µM
O=[N+]([O-])c1ccc(NN=C2c3ccccc3Cc3ccccc32)c([N+](=O)[O-])c1		> 100 µM		5.19 µM		> 80.4 µM		11.5 µM		5.8 µM		79.9 µM		> 100 µM		> 100 µM		> 100 µM		> 100 µM
O=C1C(Cl)=C(Nc2ccccn2)C(=O)c2ccccc21	3.23 µM	17.2 µM	1860 nM	3.98 µM	3.65 µM	> 100 µM	2490 nM	5.32 µM	2.02 µM	3.96 µM	3.45 µM	10.8 µM	1.92 µM	5.42 µM	2.15 µM	7.03 µM	13.9 µM	26.9 µM	1.91 µM	3.84 µM
Cc1cccc2c1NC(=O)C2(c1ccc(O)cc1)c1ccc(O)cc1	0.133 µM	> 100 µM	< 10 nM	14 µM	< 0.01 µM	< 0.0192 µM	14000 nM	45.4 µM	15.4 µM	34.9 µM	3.68 µM	23.6 µM	19.1 µM	99.5 µM	17.9 µM	64 µM	19.2 µM	42 µM	18.4 µM	49.2 µM
